≈ marks a conversion by molar mass, not a printed value.
Experiments:
Staphylococcus aureus [1] = assay: Antibacterial activity against Staphylococcus aureus SA-1199B by EtBr efflux assay; type: functional
[2] = molecular target: T1, Quinolone resistance protein NorA (Staphylococcus aureus) (UniProt P0A0J7); assay: Inhibition of NorA in Staphylococcus aureus SA-1199B assessed as reduction in ethidium bromide efflux at 50 uM by fluorimetry; parameters: scale not given: the % may be the effect or the level left
T1 sequence (whole entry): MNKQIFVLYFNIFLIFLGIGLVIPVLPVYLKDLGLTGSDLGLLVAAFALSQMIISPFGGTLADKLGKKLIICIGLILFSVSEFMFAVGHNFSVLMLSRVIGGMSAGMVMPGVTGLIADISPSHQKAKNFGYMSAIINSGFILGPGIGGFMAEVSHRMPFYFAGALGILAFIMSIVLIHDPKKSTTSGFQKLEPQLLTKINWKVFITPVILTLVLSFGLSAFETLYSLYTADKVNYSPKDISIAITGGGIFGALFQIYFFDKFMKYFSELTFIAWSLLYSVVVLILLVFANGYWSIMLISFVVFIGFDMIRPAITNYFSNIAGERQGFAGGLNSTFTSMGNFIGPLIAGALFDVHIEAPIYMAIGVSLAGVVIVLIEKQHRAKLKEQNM

Staphylococcus aureus [3] = assay: Antibacterial activity against Staphylococcus aureus SA-K1902 bearing norA- deficient mutation by microdilution technique; type: functional
Staphylococcus aureus [4] = assay: Antibacterial activity against methicillin and ciprofloxacin-resistant Staphylococcus aureus 25A by microdilution technique; type: functional
Escherichia coli = assay: Antibacterial activity against Escherichia coli ATCC 25922 by microdilution technique; type: functional
Staphylococcus aureus [5] = assay: Antibacterial activity against Staphylococcus aureus ATCC 25923 by microdilution technique; type: functional
Staphylococcus aureus [6] = assay: Antibacterial activity against Staphylococcus aureus SA-K1904 bearing norA++ efficient mutation by microdilution technique; type: functional
Staphylococcus aureus [7] = assay: Antibacterial activity against wild-type norA expressing Staphylococcus aureus SA-1199 by microdilution technique; type: functional
Staphylococcus aureus [8] = assay: Antibacterial activity against Staphylococcus aureus SA-1199B norA++ and A116E GrlA mutation by microdilution technique; type: functional
Staphylococcus aureus [9] = assay: Antibacterial activity against Staphylococcus aureus K1035 bearing wild-type GyrA and S80F mutant GrlA by microdilution technique; type: functional
Staphylococcus aureus [10] = assay: Antibacterial activity against Staphylococcus aureus K1134 bearing wild-type GyrA and S80Y mutant GrlA by microdilution technique; type: functional
Staphylococcus aureus [11] = assay: Antibacterial activity against Staphylococcus aureus K1305 bearing wild-type GyrA and E84K mutant GrlA by microdilution technique; type: functional
Staphylococcus aureus [12] = assay: Antibacterial activity against Staphylococcus aureus K1628 bearing S84L mutant GyrA and S80F mutant GrlA by microdilution technique; type: functional
Staphylococcus aureus [13] = assay: Antibacterial activity against Staphylococcus aureus K1640 bearing S84L mutant GyrA and S80Y mutant GrlA by microdilution technique; type: functional

MIC (Staphylococcus aureus [1]) | Activity [2] | Compound | MIC (Staphylococcus aureus [3]) | MIC (Staphylococcus aureus [4]) | MIC (Escherichia coli) | MIC (Staphylococcus aureus [5]) | MIC (Staphylococcus aureus [6]) | MIC (Staphylococcus aureus [7]) | MIC (Staphylococcus aureus [8]) | MIC (Staphylococcus aureus [9]) | MIC (Staphylococcus aureus [10]) | MIC (Staphylococcus aureus [11]) | MIC (Staphylococcus aureus [12]) | MIC (Staphylococcus aureus [13])
> 100 µg/mL | 36.8% | CCOC(=O)c1cn(C2CC2)c2c(C)c(N3CCC4=C(C3)C(=O)CCS4)c(N)cc2c1=O | – | – | – | – | – | – | – | – | – | – | – | –
> 100 µg/mL | 63.5% | CCOC(=O)c1cn(C2CC2)c2cc(N3CCC4=C(C3)C(=O)C(C)CS4)c(N)cc2c1=O (stereo unspecified) | – | – | – | – | – | – | – | – | – | – | – | –
– | – | O=C(O)c1cn(C2CC2)c2cc(N3CCNCC3)c(F)cc2c1=O [CIPROFLOXACIN] | 0.31 µg/mL (≈ 0.936 µM) | 32 µg/mL (≈ 96.6 µM) | ≤ 0.12 µg/mL | 0.5 µg/mL (≈ 1.51 µM) | 2.5 µg/mL (≈ 7.54 µM) | 0.31 µg/mL (≈ 0.936 µM) | 10 µg/mL (≈ 30.2 µM) | 2.5 µg/mL (≈ 7.54 µM) | 2.5 µg/mL (≈ 7.54 µM) | 2.5 µg/mL (≈ 7.54 µM) | > 10 µg/mL | > 10 µg/mL
– | – | CO/N=C1/C2=C(CCN(c3c(N)cc4c(=O)c(C(=O)O)cn(C5CC5)c4c3C)C2)SCC1C (stereo unspecified) | 6.25 µg/mL (≈ 13.3 µM) | 8 µg/mL (≈ 17.1 µM) | 8 µg/mL (≈ 17.1 µM) | 16 µg/mL (≈ 34.1 µM) | 6.25 µg/mL (≈ 13.3 µM) | 3.13 µg/mL (≈ 6.68 µM) | 3.13 µg/mL (≈ 6.68 µM) | – | – | – | – | –
– | – | Nc1cc2c(=O)c(C(=O)O)cn(C3CC3)c2cc1N1CCC2=C(C1)C(=O)CCS2 | 3.13 µg/mL (≈ 7.61 µM) | > 128 µg/mL | 128 µg/mL (≈ 311 µM) | 6.25 µg/mL (≈ 15.2 µM) | 6.25 µg/mL (≈ 15.2 µM) | 1.56 µg/mL (≈ 3.79 µM) | 25 µg/mL (≈ 60.8 µM) | – | – | – | – | –
– | – | Cc1c(N2CCC3=C(C2)/C(=N/O)CCS3)c(N)cc2c(=O)c(C(=O)O)cn(C3CC3)c12 | 0.63 µg/mL (≈ 1.43 µM) | – | 0.5 µg/mL (≈ 1.14 µM) | 0.31 µg/mL (≈ 0.704 µM) | 0.63 µg/mL (≈ 1.43 µM) | 0.63 µg/mL (≈ 1.43 µM) | 2.5 µg/mL (≈ 5.68 µM) | – | – | – | – | –
– | – | CC1CSC2=C(CN(c3cc4c(cc3N)c(=O)c(C(=O)O)cn4C3CC3)CC2)C1=O (stereo unspecified) | 1.56 µg/mL (≈ 3.67 µM) | 16 µg/mL (≈ 37.6 µM) | 64 µg/mL (≈ 150 µM) | 6.25 µg/mL (≈ 14.7 µM) | 6.25 µg/mL (≈ 14.7 µM) | 3.13 µg/mL (≈ 7.36 µM) | 12.5 µg/mL (≈ 29.4 µM) | – | – | – | – | –
– | – | CO/N=C1\CCSC2=C1CN(c1c(N)cc3c(=O)c(C(=O)O)cn(C4CC4)c3c1C)CC2 | 0.31 µg/mL (≈ 0.682 µM) | 32 µg/mL (≈ 70.4 µM) | 16 µg/mL (≈ 35.2 µM) | 0.16 µg/mL (≈ 0.352 µM) | 0.31 µg/mL (≈ 0.682 µM) | 0.31 µg/mL (≈ 0.682 µM) | 0.31 µg/mL (≈ 0.682 µM) | 1.25 µg/mL (≈ 2.75 µM) | 2.5 µg/mL (≈ 5.5 µM) | 1.25 µg/mL (≈ 2.75 µM) | > 10 µg/mL | > 10 µg/mL
> 100 µg/mL | 26.3% | CCOC(=O)c1cn(C2CC2)c2cc(N3CCC4=C(C3)C(O)CCS4)c(N)cc2c1=O (stereo unspecified) | – | – | – | – | – | – | – | – | – | – | – | –
> 100 µg/mL | 35.7% | CCOC(=O)c1cn(C2CC2)c2cc(N3CCC4=C(C3)C(=O)CCS4)c(N)cc2c1=O | – | – | – | – | – | – | – | – | – | – | – | –
– | – | Cc1c(N2CCC3=C(C2)C(=O)C(C)CS3)c(N)cc2c(=O)c(C(=O)O)cn(C3CC3)c12 (stereo unspecified) | 0.16 µg/mL (≈ 0.364 µM) | 32 µg/mL (≈ 72.8 µM) | 64 µg/mL (≈ 146 µM) | 0.08 µg/mL (≈ 0.182 µM) | 0.16 µg/mL (≈ 0.364 µM) | 0.16 µg/mL (≈ 0.364 µM) | 0.31 µg/mL (≈ 0.705 µM) | 1.25 µg/mL (≈ 2.84 µM) | 1.25 µg/mL (≈ 2.84 µM) | 1.25 µg/mL (≈ 2.84 µM) | > 10 µg/mL | > 10 µg/mL
– | – | CO/N=C1\CCSC2=C1CN(c1cc3c(cc1N)c(=O)c(C(=O)O)cn3C1CC1)CC2 | 1.56 µg/mL (≈ 3.54 µM) | 8 µg/mL (≈ 18.2 µM) | 16 µg/mL (≈ 36.3 µM) | 2 µg/mL (≈ 4.54 µM) | 3.13 µg/mL (≈ 7.11 µM) | 3.13 µg/mL (≈ 7.11 µM) | 12.5 µg/mL (≈ 28.4 µM) | – | – | – | – | –
– | – | CC1CSC2=C(CN(c3cc4c(cc3F)c(=O)c(C(=O)O)cn4C3CC3)CC2)/C1=N/O (stereo unspecified) | 0.16 µg/mL (≈ 0.361 µM) | 4 µg/mL (≈ 9.02 µM) | 32 µg/mL (≈ 72.2 µM) | 0.31 µg/mL (≈ 0.699 µM) | 0.31 µg/mL (≈ 0.699 µM) | 0.16 µg/mL (≈ 0.361 µM) | 0.31 µg/mL (≈ 0.699 µM) | 1.25 µg/mL (≈ 2.82 µM) | 1.25 µg/mL (≈ 2.82 µM) | 1.25 µg/mL (≈ 2.82 µM) | > 10 µg/mL | > 10 µg/mL
– | – | CC1CSC2=C(CN(c3cc4c(cc3F)c(=O)c(C(=O)O)cn4C3CC3)CC2)C1=O (stereo unspecified) | 0.16 µg/mL (≈ 0.373 µM) | 32 µg/mL (≈ 74.7 µM) | 8 µg/mL (≈ 18.7 µM) | 0.31 µg/mL (≈ 0.723 µM) | 0.16 µg/mL (≈ 0.373 µM) | 0.08 µg/mL (≈ 0.187 µM) | 0.16 µg/mL (≈ 0.373 µM) | 1.25 µg/mL (≈ 2.92 µM) | 1.25 µg/mL (≈ 2.92 µM) | 1.25 µg/mL (≈ 2.92 µM) | > 10 µg/mL | > 10 µg/mL
– | – | Cc1c(N2CCC3=C(C2)C(=O)CCS3)c(N)cc2c(=O)c(C(=O)O)cn(C3CC3)c12 | 0.31 µg/mL (≈ 0.729 µM) | 4 µg/mL (≈ 9.4 µM) | 1 µg/mL (≈ 2.35 µM) | 0.25 µg/mL (≈ 0.588 µM) | 0.31 µg/mL (≈ 0.729 µM) | 0.31 µg/mL (≈ 0.729 µM) | 0.63 µg/mL (≈ 1.48 µM) | 1.25 µg/mL (≈ 2.94 µM) | 1.25 µg/mL (≈ 2.94 µM) | 1.25 µg/mL (≈ 2.94 µM) | > 10 µg/mL | > 10 µg/mL
– | – | CO/N=C1/C2=C(CCN(c3cc4c(cc3N)c(=O)c(C(=O)O)cn4C3CC3)C2)SCC1C (stereo unspecified) | 3.13 µg/mL (≈ 6.89 µM) | 4 µg/mL (≈ 8.8 µM) | 128 µg/mL (≈ 282 µM) | 4 µg/mL (≈ 8.8 µM) | 3.13 µg/mL (≈ 6.89 µM) | 6.25 µg/mL (≈ 13.7 µM) | 6.25 µg/mL (≈ 13.7 µM) | – | – | – | – | –

From ChEMBL document CHEMBL1155486, “From 6-aminoquinolone antibacterials to 6-amino-7-thiopyranopyridinylquinolone ethyl esters as inhibitors of Staphylococcus aureus multidrug efflux pumps” (2010)
